{"source": "the supplement of paper PMC10307832", "experiment_in_all_cases": "relative viability (nuclei count vs DMSO), 5 days (fraction); higher = more cells survive", "key": {"Selisistat + Alpelisib": {"compound": "C1CC(C2=C(C1)C3=C(N2)C=CC(=C3)Cl)C(=O)N [Selisistat] + Cc1nc(NC(=O)N2CCC[C@H]2C(N)=O)sc1-c1ccnc(C(C)(C)C(F)(F)F)c1 [Alpelisib] (partner 2 µM)", "how_it_was_run": "(§1)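 A single step with final 0.05% Triton X-100, 1% formaldehyde and 1 ug/ml Hoechst fixed the cells and stained nuclei 5 days after treatment. Lung cancer cell lines in 1536-well plates had been treated by pin tool the day after seeding with one drug alone or a fixed anchor-drug dose plus five library-drug doses (not always all listed) in √10 steps, and nuclei were counted on 4× images. Relative viability is the ratio of nuclei in treated wells to nuclei in vehicle wells, taken as the median of duplicate plates.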"}, "Selisistat + Pemetrexed": {"compound": "C1CC(C2=C(C1)C3=C(N2)C=CC(=C3)Cl)C(=O)N [Selisistat] + Nc1nc2[nH]cc(CCc3ccc(C(=O)N[C@@H](CCC(=O)O)C(=O)O)cc3)c2c(=O)[nH]1 [Pemetrexed] (partner 0.2 µM)", "how_it_was_run": "as §1"}, "Serdemetan + Lapatinib": {"compound": "c1ccc2c(CCNc3ccc(Nc4ccncc4)cc3)c[nH]c2c1 [Serdemetan] + CS(=O)(=O)CCNCc1ccc(-c2ccc3ncnc(Nc4ccc(OCc5cccc(F)c5)c(Cl)c4)c3c2)o1 [Lapatinib] (partner 2 µM)", "how_it_was_run": "as §1"}, "Serdemetan + Decitabine": {"compound": "c1ccc2c(CCNc3ccc(Nc4ccncc4)cc3)c[nH]c2c1 [Serdemetan] + Nc1ncn([C@H]2C[C@H](O)[C@@H](CO)O2)c(=O)n1 [Decitabine] (partner 2 µM)", "how_it_was_run": "as §1"}}, "data": [{"cell line": "UMC-11", "values": [{"measurement": "relative viability", "setting": "Selisistat + Alpelisib; first compound 0.4 µM", "result": 1.19}, {"measurement": "relative viability", "setting": "Selisistat + Alpelisib; first compound 1.265 µM", "result": 0.99}, {"measurement": "relative viability", "setting": "Selisistat + Alpelisib; first compound 4 µM", "result": 1.04}, {"measurement": "relative viability", "setting": "Selisistat + Alpelisib; first compound 12.65 µM", "result": 0.994}, {"measurement": "relative viability", "setting": "Selisistat + Alpelisib; first compound 40 µM", "result": 0.887}, {"measurement": "relative viability", "setting": "Selisistat + Pemetrexed; first compound 0.4 µM", "result": 0.767}, {"measurement": "relative viability", "setting": "Selisistat + Pemetrexed; first compound 1.265 µM", "result": 0.749}, {"measurement": "relative viability", "setting": "Selisistat + Pemetrexed; first compound 4 µM", "result": 0.844}, {"measurement": "relative viability", "setting": "Selisistat + Pemetrexed; first compound 12.65 µM", "result": 0.754}, {"measurement": "relative viability", "setting": "Selisistat + Pemetrexed; first compound 40 µM", "result": 0.759}, {"measurement": "relative viability", "setting": "Serdemetan + Lapatinib; first compound 0.04 µM", "result": 0.953}, {"measurement": "relative viability", "setting": "Serdemetan + Lapatinib; first compound 0.1265 µM", "result": 0.915}, {"measurement": "relative viability", "setting": "Serdemetan + Lapatinib; first compound 0.4 µM", "result": 1.03}, {"measurement": "relative viability", "setting": "Serdemetan + Lapatinib; first compound 1.265 µM", "result": 0.703}, {"measurement": "relative viability", "setting": "Serdemetan + Lapatinib; first compound 4 µM", "result": 0.886}, {"measurement": "relative viability", "setting": "Serdemetan + Decitabine; first compound 0.04 µM", "result": 0.564}, {"measurement": "relative viability", "setting": "Serdemetan + Decitabine; first compound 0.1265 µM", "result": 0.387}, {"measurement": "relative viability", "setting": "Serdemetan + Decitabine; first compound 0.4 µM", "result": 0.685}, {"measurement": "relative viability", "setting": "Serdemetan + Decitabine; first compound 1.265 µM", "result": 0.649}, {"measurement": "relative viability", "setting": "Serdemetan + Decitabine; first compound 4 µM", "result": 0.532}]}]}
